Results as given in patent US4599325A, “Substituted tyrosyl alanine dipeptide amides” (G. D. Searle & Co., priority 1985, dated 1986).
Structures can show the parent of a compound that is named as a salt. Where two headings read alike, the source gives them in different places.

Legend:
[1] = test system: mice; assay: Writhing assay (phenylbenzoquinone); type: in vivo, mouse; conditions: for ED50: Mus musculus; for Writhing Mouse Oral (ED50) / Writhing Mouse Subc. (ED50): Table 1; for Writhing Mouse Subc. (ED50): subcutaneous
Protocol: Male Charles River albino mice (CD-1/HAM/1LR) weighing between 20 and 30 grams were used. Thirty minutes after subcutaneous or intragastric administration of the test compound (0.1 ml/10 gram body weight), 0.025% (w/v) phenylbenzoquinone was injected intraperitoneally (0.1 ml/10 gram body weight). Five minutes later, each mouse was placed in a large glass beaker and the number of writhes that occurred in the subsequent ten minutes is counted. A writhe consisted of dorsoflexion of the back, extension of the hindlimbs, and strong contraction of the abdominal musculature. The test compound was considered to have produced analgesia in a mouse if the number of writhes elicited by phenylbenzoquinone was equal to or less than one-half the median number of writhes recorded for the saline-treated group that day. The results were expressed as the number of mice (out of a possible ten) in which the test compound produced analgesia. The test compound was rated active if writhing was inhibited (as described) in 5 of 10 mice.
The receptor binding and biological properties of the following compounds of this invention are illustrated in Tables 1 and 2 utilizing the previously described opiate binding, hot plate, tail flick, writhing assay, cholera test or hypertensive test. The standard screening dose for the hot plate test of Table 1 was 10 mg/kg i.v. and for the writhing assay was 10 mg/kg s.c. and p.o.

[2] = target: T1, delta opiate receptor (Rattus norvegicus, UniProt P33533); assay: Delta opiate receptor binding (3H-(D)-Ala2-(D)-Leu5 enkephalin); conditions: Table 2; 3H-(D)-Ala2-(D)-Leu5 enkephalin 0.2 nM, rat brain
T1 construct: The receptor membrane homogenate was prepared using rat brain; from tissue; host or cells: rat brain membrane homogenate
Protocol: Several subtypes of opiate receptors have been identified. These multiple receptors are thought to mediate the different effects of opiates, e.g., mu receptors are believed to mediate the analgesic activity of opiates. Therefore, the relative affinities of the test compounds for the mu and the delta opiate receptors was determined. The receptor membrane homogenate was prepared using rat brain as previously described in this document. The binding assays for the mu and delta receptors were performed using a modification of the method described by Chang and Cuatrecasas. K.-J. Chang and P. Cuatrecasas. Multiple Opiate receptors: enkephalins and morphine bind to receptors of different specificity, J. Biol. Chem. 254, 2610-2618 (1979). The incubation mixtures contained 0.75 ml of homogenate (1 mg protein/ml) and 0.05 ml of ^3 H-Dihydromorphine (final concentration of 0.2 nM) or 0.05 ml ^3 H-(D)-Ala^2 -(D)-Leu^5 enkephalin (final concentration of 0.2 nM). Both the displacer, naloxone, and the test compounds were added in 0.1 ml volumes. Finally, […] tris-HCl buffer (pH 7.4 at 25° C.) was added to bring the total volume up to 1 ml. The mixture were then incubated 60 minutes at 25° C. before filtering.
The IC50 values, i.e., the concentration of the test compound that inhibited ligand specific binding to its receptor by 50%, were calculated using log-probit analysis, D. J. Finney. […]

[3] = target: opiate receptors; assay: Opiate binding assay (displacement of 3H-Naloxone); design: species or system rat; conditions: for IC50: Table 1, 3H-Naloxone, rat brain membranes
Protocol: The test compounds were evaluated for their ability to displace the binding of ^3 H-Naloxone to opiate receptors isolate from rat brain. Male rats [COBS CD(SD)BR] obtained from Charles River Laboratories (Portage, MI) were sacrificed by cervical dislocation. A purified homogenate of receptor membranes was prepared from the brains according to the method described by Chang and Cuatrecasas. (K.-J. Chang and P. Cuatrecases. Multiple Opiate Receptors: Enkephalins And Morphine Bind To Receptors Of Different Specificity. J. Biol. Chem. 254, 2610-2618 (1979).) The brains were homogenized in 10 volumes of 0.32M sucrose and centrifuged twice at 6,000×g for 15 minutes. Following centrifugation of the supernatants at 40,000×g for 30 minutes, the pellets were allowed to swell, then centrifuged at 6,000 and 40,000×g. This process was repeated. The final pellet was resuspended in 2 volumes of 50 mM tris HCl (pH 7.4). The homogenate was assayed for protein content according to the method of Itzhaki and Gill. R. F. Itzhaki and D. M. Gill. A Micro-Biuret Method for Estimating Proteins. Anal. Biochem. 9, […] (1964).
The binding of the test compounds to the receptor membrane preparation was measured using a modification of the method of Pert and Snyder. C. B. Pert and S. H. Snyder. Properties of Opiate-Receptor Binding in Rat Brain. Proc. Natl. Acad. Sci. 70, 2243-2247 (1973). The receptor assay was run using 1 nM ^3 H-Naloxone and 2 ml of tissue homogenate (0.5 mg/ml protein concentration). Levorphanol (1×10^-5 M) was used as the displacer for non-specific binding. Both the displacer and the test compounds were added in 0.02 ml volumes. The assay was run in 0.05M tris HCl (pH 7.4) ±100 mM NaCl. Total assay volume was 2.03 ml.
Samples were incubated at 25° C. for 60 min., cooled on ice 5 min. and subsequently filtered over Whatman GF/C glass fiber filters with 2.4 ml washes of cold buffer. The filters were then solubilized in 1 ml of NCS at 50° C. for 1 hour. After solubilization, the pH was adjusted with 0.1 ml of glacial acetic acid, 10 ml of PCS was added and the samples were counted in a Nuclear Chicago Mark II liquid scintillation counter. This method was used for the following test compounds: Example 4, Example 5, Example 27, Example 28, Example 38, Example 39, and the prior art compound (4).
A modification of this method was used for the following test compounds: Example 16, Example 17, Example 21, Example 22, Example 24, Example 30, Example 31. In this modification, the total assay volume was adjusted to 1.0 ml. Samples were cooled on ice for 10 minutes and dried at 50° C. for 30 minutes, then 10 mls of PCS was added and the samples counted in a liquid scinitillation counter.
The IC50 values, the concentration of the test compounds which inhibited ^3 H-Naloxone specific binding to the opiate receptor by 50%, were obtained from log-probit plots of concentration-response curves. D. J. Finney. Probit Analysis. Cambridge University Press, London, 1947.

T1 sequence (P33533 whole entry): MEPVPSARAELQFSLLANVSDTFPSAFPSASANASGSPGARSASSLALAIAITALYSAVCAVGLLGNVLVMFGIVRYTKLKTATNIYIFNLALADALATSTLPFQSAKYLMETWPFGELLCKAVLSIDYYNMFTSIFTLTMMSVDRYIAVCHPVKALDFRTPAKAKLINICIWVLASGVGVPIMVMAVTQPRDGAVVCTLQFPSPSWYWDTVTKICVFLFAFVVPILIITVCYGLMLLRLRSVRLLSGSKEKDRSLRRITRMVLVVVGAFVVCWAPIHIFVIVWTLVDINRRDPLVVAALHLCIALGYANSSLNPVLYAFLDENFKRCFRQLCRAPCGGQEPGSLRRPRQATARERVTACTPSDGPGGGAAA

| Compound | ED50 ([1]; po, Table 2, p.o., read-out: Writhing (ED50) p.o.) [mg/kg] | ED50 ([1]; sc, Table 2, s.c., read-out: Writhing (ED50) s.c.) [mg/kg] | Writhing Mouse Oral (ED50) ([1]; hydrochloride) [mg/kg] | Writhing Mouse Subc. (ED50) ([1]; hydrochloride) [mg/kg] | activity in writhing test relative to the prior art, oral ([1]; administered orally, more active than prior art) [times] | potency in writhing test relative to the prior art, subcutaneous ([1]; subcutaneous administration) | IC50 [2] [nM] | IC50 ([3]; hydrochloride) [nM] | affinity to the opiate receptor relative to the prior art compound ([3]; greater affinity than prior art compound) | Writhing Mouse Oral (ED50) [1] [mg/kg] | Writhing Mouse Subc. (ED50) [1] [mg/kg] | Writhing (ED50) s.c. ([1]; Table 2, s.c.) [mg/kg] | IC50 [3] [nM] |
| --- | --- | --- | --- | --- | --- | --- | --- | --- | --- | --- | --- | --- | --- |
| Cc1cc(O)cc(C)c1C[C@H](N)C(=O)N[C@H](C)C(=O)NCCCc1ccccc1 [Example 5, 2,6-dimethyltyrosyl-N-(3-phenylpropyl)-D-alaninamide, hydrochloride] | 0.5 | 0.5 | 0.53 | 0.52 | 6 | approximately equipotent | 1.2 | 27 | tenfold |  |  |  |  |
| tyrosine-D-alanine-phenylpropylamide [Prior Art, reference compound] |  |  |  |  |  |  | 62 |  |  | 0.58 | 3.10 | 0.6 | 430 |
